Measured values reported in article PMC6412891, “Synthesis and Biological Evaluation of Novel Thiazolyl-Coumarin Derivatives as Potent Histone Deacetylase Inhibitors with Antifibrotic Activity” (Molecules, 2019).

Experiments:
[1] = test system: HDACs HeLa cells nuclear extract; assay: HDAC inhibitory activity, fluorometric kit, HeLa cell nuclear extract; format: biochemical, human; conditions: HeLa cell nuclear extract as HDAC source
α-SMA expression in CFs = assay: α-SMA expression levels in cardiac fibroblasts, western blot; format: cell-based, rat; conditions: derivatives 5 μM (TSA 0.1 μM) for 48 h in presence of TGF-β1
Procedure: For this purpose, a fixed concentration of 5a, 6a, 7a and 8a derivatives in the presence/absence of TGF–β1 (a strong inducer of CFs–to–CMFs differentiation), was studied, and α–SMA expression levels were measured by using the western blot technique. TSA was used as a control and also for comparative purposes.
(§1) For the analysis of the protein expression of histone H4–acetylated (ac–H4) and total H4 histone, a number of 1 × 10^6 of CFs seeded in 60 mm plates was used, which were incubated with the inhibitory compounds at a concentration of 10 μM, in the absence/presence of TGF–β1(5ng/mL) for 4 h. Subsequently, total histones were extracted by the technique of saline precipitation (high salt extraction). Briefly, CFs were scraped from the plates with 1 mL of cold PBS transferring their contents to Eppendorf tubes to be centrifuged for 60 s at 1500 rpm at 4 °C and re–suspended in 400 μL of cold buffer A (10 mM 4-(2-hydroxyethyl)-1-piperazineethanesulfonic acid-KOH (HEPES-KOH) adjusted to pH 7.9, 1.5 mM MgCl2, 10 mM KCl, 0.5 mM dithiothreitol and 0.2 mM phenylmethylsulfonyl fluoride (PMSF). The suspension is left on ice for 10 min and then placed in the vortex for 10 s. The samples were centrifuged for 60 s, subsequently discarding the supernatant fraction. The obtained pellet was re-suspended in 60 μL of cold C buffer (20 mM HEPES-KOH adjusted to pH 7.9, 25% glycerol, 420 mM NaCl, 1.5 mM MgCl2, 0.2 mM EDTA, dithiothreitol 0.5 mM and 0.2 mM PMSF) and placed on ice for 20 min for saline precipitation. Cell debris is removed by centrifugation for 120 s at 1500 rpm at 4 °C and the supernatant fraction, which contains the DNA binding proteins, is stored at minus 20 °C. For the analysis of α–SMA and procollagen type I expression levels, 3×10^5 CFs seeded in 35 mm plates were used, which were incubated together with inhibitor compounds at a 5 μM, in the absence/presence of TGF–β1 (5 ng/mL) for 48 h. To obtain the total proteins, the CFs were washed three times with cold PBS, then scraped and lysed with 50 μL of radio inmuno-precipitation assay (RIPA) lysis buffer (10 mM Tris–HCl pH 7.2, 5 mM EDTA, 150 mM NaCl, Triton X–100 1%, sodium dodecyl sulfate (SDS) 0.1%, deoxycholate 1%, leupeptin 2 μg/mL, aprotinin 10mM, PMSF 1mM and Na3VO4 100μM). The solution was centrifuged for 15 min at 10,000 rpm and at 4 °C. The supernatant fraction containing the total proteins was stored at minus 20 °C. The concentration of proteins obtained was determined by spectrophotometry at 570 nm, using the Bradford method (Bio-Rad, Hercules, CA, USA).
(§2) CFs proteins (25 μg), were subjected to 10% sodium dodecyl sulfate-polyacrylamide gel electrophoresis and finally transferred onto a nitrocellulose membrane (Millipore, Billerica, MA, USA). The membrane was washed twice with tris–buffered saline solution containing 0.1% Tween 20 (TBST). After being blocked with TBST containing 5% nonfat milk for 40 min, the membrane was incubated with primary antibodies in TBST/1% nonfat milk at 4 °C overnight. The membrane was washed three times with TBST for a total of 15 min and then incubated with primary antibodies (ac–H4, H4 total, α-SMA, procollagen type I and GAPDH). Then the membrane was incubated with goat anti–rabbit or anti-mouse IgG antibodies conjugated with horseradish (diluted 1:1000) for 1 h at room temperature. Signals were developed with ECL reagents and exposure to photographic film.
Figure 4 CTz non–substituted inhibit α-SMA expression in cardiac fibroblasts. (A) CFs were exposed to 5a, 6a, 7a and 8a at 5 μM for 48 h. […] (B) CFs were exposed to 5a, 6a, 7a and 8a at 5 μM for 48 h in presence of TGF–β1 ([…]). α-SMA expression levels were measured by western blot. GAPDH was used as control load.

[2] = test system: procollagen type I expression in CFs; assay: Procollagen type I expression levels in cardiac fibroblasts, western blot; format: cell-based, rat; conditions: derivatives 5 μM (TSA 0.1 μM) for 48 h in presence of TGF-β1
Procedure: In CFs collagen type I secretion is a hallmark of cardiac fibrosis development, which is regulated by HDACs. […] For this purpose, a fixed concentration of 5a, 6a, 7a and 8a derivatives in presence/absence of TGF-β1 were studied, and procollagen type I expression levels were measured by using the western blot technique. TSA was used as control and also for comparative purposes. In Figure 5 (A and B), in the upper panel representative photographs of procollagen type I expression level and GAPDH (used as charge control) are shown, whereas in the lower panel the graphic analyses are observed.
as §1, §2
Figure 5 CTz non–substituted inhibit procollagen type I expression levels in cardiac fibroblasts. […] (B) CFs were exposed to 5a, 6a, 7a and 8a at 5 μM for 48 h in presence of TGF–β1. Procollagen type I expression levels were measured by western blot. GAPDH was used as control load.

HDAC1 human recombinant = target: T1, HDAC1 human recombinant (Homo sapiens, UniProt Q13547); assay: HDAC1 inhibitory activity, fluorometric kit; format: biochemical; conditions: Class I
T1 construct: purchased Enzo Life Science BML-AK511
T1 sequence (Q13547 whole entry): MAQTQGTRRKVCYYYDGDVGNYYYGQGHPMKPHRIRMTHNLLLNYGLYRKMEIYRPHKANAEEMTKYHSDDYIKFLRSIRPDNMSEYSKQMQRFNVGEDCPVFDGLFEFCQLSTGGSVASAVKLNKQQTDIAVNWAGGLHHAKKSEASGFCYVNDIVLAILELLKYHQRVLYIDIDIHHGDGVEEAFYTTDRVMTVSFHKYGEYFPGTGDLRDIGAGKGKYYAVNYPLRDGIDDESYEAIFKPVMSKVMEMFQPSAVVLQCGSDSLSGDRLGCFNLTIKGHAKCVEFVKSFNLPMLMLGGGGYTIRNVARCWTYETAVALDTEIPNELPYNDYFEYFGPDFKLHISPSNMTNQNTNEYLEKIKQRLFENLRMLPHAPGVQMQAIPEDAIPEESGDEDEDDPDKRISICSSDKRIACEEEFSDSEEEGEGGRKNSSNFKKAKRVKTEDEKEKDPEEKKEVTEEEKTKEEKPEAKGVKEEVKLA

HDAC6 human recombinant = target: T2, HDAC6 human recombinant (Homo sapiens, UniProt Q9UBN7); assay: HDAC6 inhibitory activity, fluorometric kit; format: biochemical; conditions: Class II
T2 construct: purchased Enzo Life Science BML-AK516
T2 sequence (Q9UBN7 1-1215): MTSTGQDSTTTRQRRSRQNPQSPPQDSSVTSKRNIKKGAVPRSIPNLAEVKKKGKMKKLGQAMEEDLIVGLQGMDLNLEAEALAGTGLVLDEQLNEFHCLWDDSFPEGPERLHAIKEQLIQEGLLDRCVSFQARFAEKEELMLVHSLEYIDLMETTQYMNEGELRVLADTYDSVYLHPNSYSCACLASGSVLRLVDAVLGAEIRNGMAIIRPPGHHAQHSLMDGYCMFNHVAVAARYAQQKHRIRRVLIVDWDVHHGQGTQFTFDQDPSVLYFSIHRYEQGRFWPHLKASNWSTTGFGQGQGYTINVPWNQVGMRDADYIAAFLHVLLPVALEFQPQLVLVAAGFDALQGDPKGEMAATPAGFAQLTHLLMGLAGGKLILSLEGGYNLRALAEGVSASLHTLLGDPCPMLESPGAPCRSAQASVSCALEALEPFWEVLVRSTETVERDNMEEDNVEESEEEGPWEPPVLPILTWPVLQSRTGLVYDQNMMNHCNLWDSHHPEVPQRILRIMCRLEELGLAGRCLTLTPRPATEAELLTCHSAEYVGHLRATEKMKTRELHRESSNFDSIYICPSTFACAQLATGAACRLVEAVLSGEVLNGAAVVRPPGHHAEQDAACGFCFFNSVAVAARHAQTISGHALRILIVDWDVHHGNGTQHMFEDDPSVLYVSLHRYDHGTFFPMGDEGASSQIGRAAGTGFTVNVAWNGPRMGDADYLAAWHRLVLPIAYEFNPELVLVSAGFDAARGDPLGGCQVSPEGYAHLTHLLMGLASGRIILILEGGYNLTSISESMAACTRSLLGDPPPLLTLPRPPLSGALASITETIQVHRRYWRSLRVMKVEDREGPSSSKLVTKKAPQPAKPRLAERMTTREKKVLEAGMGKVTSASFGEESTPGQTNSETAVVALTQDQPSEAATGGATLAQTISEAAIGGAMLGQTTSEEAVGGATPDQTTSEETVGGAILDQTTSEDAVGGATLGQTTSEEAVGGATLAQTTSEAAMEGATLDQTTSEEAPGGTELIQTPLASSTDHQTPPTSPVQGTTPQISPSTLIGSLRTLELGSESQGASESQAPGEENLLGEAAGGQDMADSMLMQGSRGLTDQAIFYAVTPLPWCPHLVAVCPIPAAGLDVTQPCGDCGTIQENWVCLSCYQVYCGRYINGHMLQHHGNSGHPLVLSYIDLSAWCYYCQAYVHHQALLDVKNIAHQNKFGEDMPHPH

[3] = Cytotoxicity assay (Alamar Blue) in cardiac fibroblasts; format: cell-based, rat; conditions: Sprague-Dawley, rat, primary neonatal rat cardiac fibroblasts (CFs), CFs treated for 48 h
Procedure: CFs were treated for 48 h with all the new CTz derivatives in a broad concentration range (100 μM^−1 mM), and their cytotoxicity was then evaluated. In Table 3 cytotoxic concentration 50 (CC50) values for each of the synthesized compounds are shown. […] When comparing the different ZBG the series 5 is the least cytotoxic for CFs, while series 8 was the most cytotoxic.
(§3) Sprague Dawley rats were obtained from the Animal Breeding Facility of the School of Chemical and Pharmaceutical Sciences at the University of Chile. All studies followed the Guide for the Care and Use of Laboratory Animals published by the US National Institutes of Health (NIH Publication 8th, 2011), and experimental protocols were approved by the University of Chile Institutional Ethics Review Committee. CF were isolated from of 2 or 3–day–old Sprague-Dawley rats and cultured as described previously. Briefly, the neonatal rats were decapitated and their hearts were extracted under aseptic environment. Atria were removed and ventricles were cut into small pieces (~1–2 mm) for posterior colagenase II digestion. The digestion yield was separated by 10 min centrifugation at 89×g. The pellet was resuspended in 10 mL of Dulbecco’s Modified Eagle’s Medium/Nutrient F-12 (DMEM-F12) supplemented with 10% FBS and antibiotics (100 μg/mL streptomycin and 100 units/mL penicillin) and cultured in a humid atmosphere of 5% CO2 and 95% O2 at 37°C until confluence (5 days). The purity of the CFs population was assessed through the expression of several markers. CFs had positive staining against vimentin (Santa Cruz Biotechnology), while being negative against sarcomeric actin and desmin (Sigma-Aldrich). Experiments were performed on cells at passage 1. Cells were cultured in 35-mm well plates and serum starved for 24 h prior to stimulation.
(§4) To evaluate cytotoxicity, CFs were seeded in 12 microwell plates at a ratio of 2 × 10^4 cell/cm^2, cultured in DMEM–F12 medium + 10% FBS, which was subsequently replaced by DMEM–F12. After 24 h of serum starvation derivatives were applied at proper times and concentrations in accordance to experimental procedures. Cell viability assays were carried out using Alamar Blue®, a nontoxic, cell permeable non fluorescent compound that is blue in color. Viable cells reduce resazurin to resorufin, which produces very bright red fluorescence which is used as a quantitative cell viability measure. 10 μL of 0.2 mg/mL Alamar Blue® was added into each well followed by incubation for 24 h. The fluorescence of Alamar Blue® was read using microplate reader at 570 excitation and emission to 595 nm. Cell survival was expressed as percentage over the untreated cells. To evaluate CFs proliferation assay, cells were seeded as mentioned before, and after serum starvation, they were stimulated by 10% fetal bovine serum (FBS), in presence/absence of CTz derivatives for 24 h, at concentrations according to experiment. Cell proliferation was quantified by Alamar Blue®, according to protocol mentioned before. Cell proliferation was expressed as percentage over the control FBS treated cells.

[4] = test system: neonatal rat cardiac fibroblasts (CFs); assay: FBS-induced cardiac fibroblast proliferation assay (Alamar Blue); format: cell-based; conditions: 10% FBS-induced CF proliferation, 48 h, read-out: Inhibition percentage of cell proliferation
Procedure: CFs were treated for 48 h with 10% fetal bovine serum (FBS), to induce CFs proliferation in presence/absence of each new CTz derivatives in a concentration range of 1–10 μM. In Table 4, the inhibition percentage of cell proliferation for each concentration of the synthesized compounds are shown. All derivatives inhibited CFs proliferation induce by serum.
as §3, with “Cells were cultured in 35-mm well plates and serum starved for 24 h prior to stimulation.” left out
as §4, with “10 μL of 0.2 mg/mL Alamar Blue® was added into each well followed by incubation for 24 h.” left out, “To evaluate CFs proliferation assay, cells were seeded as mentioned before, and after serum starvation, they were stimulated by 10% fetal bovine serum (FBS), in presence/absence of CTz derivatives for 24 h, at concentrations according to experiment.” left out

CC(/C=C/C(=O)NO)=C\[C@@H](C)C(=O)c1ccc(N(C)C)cc1 [TSA, trichostatin A, reference compound]
IC50 [1]: 5 ± 0.12 nM
α-SMA expression levels induced by TGF-β1 (α-SMA expression in CFs): decrease close to control levels
procollagen type I expression levels induced by TGF-β1 [2]: decreased, close to control levels

COc1ccc2oc(=O)c(-c3csc(NC(=O)CCCCC(=O)NO)n3)cc2c1 [Compound 8c, 5-[4-(6-Methoxy-2-oxo-2H-chromen-3-yl)-thiazol-2-yl-carbamoyl]-N-hydroxypentanamide]
IC50 [1]: 41.5 ± 2.7 nM
IC50 (HDAC1 human recombinant): 46.5 ± 2.2 nM
IC50 (HDAC6 human recombinant): 62.6 ± 2.3 nM
CC50 at 48 h [3]: 86500 ± 5900 nM
inhibition at 1 µM ([4]; 1 μM): 69.7 ± 9.1%
inhibition at 5 µM ([4]; 5 μM): 81.8 ± 5.5%
inhibition at 10 µM ([4]; 10 μM): 97.7 ± 4.7%
melting point: 125 to 127 °C (dec.)
